Source: patent EP4818187A1, “COMPOUND AND USE THEREOF” (Ganzhou Hemay Pharmaceutical, Co., Ltd, priority 2023, dated 2025)

What was measured:
Format in all cases: cell-based
[1] = test system: 22RV1 (human prostate cancer); assay: In vitro inhibitory effect against human tumor cells (SRB); details: 22Rv1, 72 h, 22RV1, SRB, 3 days
[2] = test system: HepG2 (human liver cancer cell); assay: as above; details: HepG2, 72 h, 3 days
[3] = test system: SW620 (human colorectal cancer); assay: as above; details: SW-620, 72 h, 3 days
[4] = test system: HCC827 (human non-small cell lung cancer); assay: as above; details: HCC827, 72 h, 3 days
[5] = test system: MDA-MB-468 (human triple-negative breast cancer); assay: as above; details: MDA-MB-468, 72 h, MDA-MB-468, SRB, 3 days
[6] = test system: A375 (human malignant melanoma); assay: as above; details: A-375, 72 h, 3 days
[7] = test system: Fadu (human pharyngeal squamous cell carcinoma); assay: In vitro inhibitory effect against human tumor cells (MTT); details: 72 h, 3 days
[8] = test system: NCI-H1975 (human non-small cell lung cancer); assay: as above; details: NCI-H1975, 72 h, 3 days
[9] = test system: SK-OV-3 (human ovarian cancer); assay: as above; details: SK-OV-3, 72 h, SK-OV-3, MTT, 3 days
[10] = test system: HCT116 (human colorectal cancer); assay: as above; details: HCT-116, 72 h, 3 days
[11] = With addition of βGU (1 µg/well)

Which IC50 [1, 11] does the source give for `CC[C@H](C)[C@@H]([C@@H](CC(=O)N1CCC[C@H]1[C@H](OC)[C@@H](C)C(=O)N[C@H](C)[C@@H](OCc1ccc(O[C@@H]2O[C@H](C(=O)[O-])[C@@H](O)[C@H](O)[C@H]2O)cc1OCc1cn(CCCCCC(=O)Nc2ccc(-c3ccc(/N=N/c4ccc5c(S(=O)(=O)[O-])cc(S(=O)(=O)[O-])c(N)c5c4O)c(C)c3)cc2C)nn1)c1ccccc1)OC)N(C)C(=O)[C@@H](NC(=O)[C@H](C(C)C)N(C)C)C(C)C.[Na+].[Na+].[Na+]` [Example compound 2] here?
The IC50 was 7.5 nM.

What about the IC50 ([1]; βGU-free) of the same compound?
The IC50 was 176 nM.

What about the IC50 [2, 11] of the same compound?
The IC50 was 4.3 nM.

What about the IC50 ([2]; βGU-free) of the same compound?
Its IC50 is 120 nM.

And the IC50 [3, 11]?
The IC50 was 6.7 nM.

And the IC50 ([3]; βGU-free)?
Its IC50 is 81 nM.

And the IC50 [4, 11]?
Its IC50 is 3.8 nM.

And the IC50 ([4]; βGU-free)?
Its IC50 is 110 nM.

And the IC50 [5, 11]?
The IC50 was 2.7 nM.

What about the IC50 ([5]; βGU-free) of the same compound?
Its IC50 is 24 nM.

What about the IC50 [6, 11] of the same compound?
Its IC50 is 6.7 nM.

What about the IC50 ([6]; βGU-free) of the same compound?
Its IC50 is 212 nM.

And the IC50 [7, 11]?
The IC50 was 2.7 nM.

What about the IC50 ([7]; βGU-free) of the same compound?
Its IC50 is 38 nM.

What about the IC50 [8, 11] of the same compound?
The IC50 was 4.3 nM.

And the IC50 ([8]; βGU-free)?
The IC50 was 114 nM.

What about the IC50 [9, 11] of the same compound?
The IC50 was 6.1 nM.

What about the IC50 ([9]; βGU-free) of the same compound?
Its IC50 is 211 nM.

What about the IC50 [10, 11] of the same compound?
The IC50 was 6.1 nM.

And the IC50 ([10]; βGU-free)?
Its IC50 is 143 nM.
